Assay results as given in ChEMBL document CHEMBL4433268, “Rational design of a SHP-2 targeted, fluorogenic peptide substrate” (Bioorg Med Chem Lett, 2019).
Activity calls are given as the source filed them. The rule behind the calls is not given here. Non-standard residues stand in square brackets, D forms with d. Residues, ends and D or L forms follow the SMILES beside them. Ala(7-OPO3H2-coumarin-4-yl) = N[C@@H](Cc1cc(=O)oc2cc(OP(=O)(O)O)ccc12)C(=O)O

Legend:
[1] = target: T1, Tyrosine-protein phosphatase non-receptor type 4 (Homo sapiens) (UniProt P29074); experiment: Substrate activity at MEG1 (unknown origin) expressed in Escherichia coli BL21 (DE3) incubated for 60 mins by fluorescence based assay
T1 sequence (whole entry): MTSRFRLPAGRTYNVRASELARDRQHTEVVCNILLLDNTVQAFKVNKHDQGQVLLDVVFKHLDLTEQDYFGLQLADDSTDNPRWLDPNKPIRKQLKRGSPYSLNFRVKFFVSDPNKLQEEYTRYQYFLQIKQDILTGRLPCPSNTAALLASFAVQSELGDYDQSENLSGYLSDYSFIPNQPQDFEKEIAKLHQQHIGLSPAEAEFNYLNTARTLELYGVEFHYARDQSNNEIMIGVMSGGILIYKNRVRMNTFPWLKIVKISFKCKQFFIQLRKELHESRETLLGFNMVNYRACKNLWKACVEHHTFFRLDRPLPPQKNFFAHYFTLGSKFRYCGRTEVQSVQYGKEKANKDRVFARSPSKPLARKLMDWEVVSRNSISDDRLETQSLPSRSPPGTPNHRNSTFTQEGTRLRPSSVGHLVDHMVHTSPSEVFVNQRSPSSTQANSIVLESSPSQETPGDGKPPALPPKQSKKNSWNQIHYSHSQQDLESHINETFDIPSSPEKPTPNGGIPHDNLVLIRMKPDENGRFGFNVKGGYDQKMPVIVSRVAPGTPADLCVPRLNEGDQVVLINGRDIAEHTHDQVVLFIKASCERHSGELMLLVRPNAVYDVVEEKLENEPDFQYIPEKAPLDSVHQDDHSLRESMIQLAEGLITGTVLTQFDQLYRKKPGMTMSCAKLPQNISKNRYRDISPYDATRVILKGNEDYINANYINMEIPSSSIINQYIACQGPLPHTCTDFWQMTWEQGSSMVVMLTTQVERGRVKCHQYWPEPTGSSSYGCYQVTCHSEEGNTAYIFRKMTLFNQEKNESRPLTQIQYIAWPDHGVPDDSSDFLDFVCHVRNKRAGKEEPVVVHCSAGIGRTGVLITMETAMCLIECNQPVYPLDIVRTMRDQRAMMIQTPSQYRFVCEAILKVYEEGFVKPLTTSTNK

[2] = target: T2, Tyrosine-protein phosphatase non-receptor type 22 (Homo sapiens) (UniProt Q9Y2R2); experiment: Substrate activity at LYP (unknown origin) expressed in Escherichia coli BL21 (DE3) incubated for 60 mins by fluorescence based assay
T2 sequence (whole entry): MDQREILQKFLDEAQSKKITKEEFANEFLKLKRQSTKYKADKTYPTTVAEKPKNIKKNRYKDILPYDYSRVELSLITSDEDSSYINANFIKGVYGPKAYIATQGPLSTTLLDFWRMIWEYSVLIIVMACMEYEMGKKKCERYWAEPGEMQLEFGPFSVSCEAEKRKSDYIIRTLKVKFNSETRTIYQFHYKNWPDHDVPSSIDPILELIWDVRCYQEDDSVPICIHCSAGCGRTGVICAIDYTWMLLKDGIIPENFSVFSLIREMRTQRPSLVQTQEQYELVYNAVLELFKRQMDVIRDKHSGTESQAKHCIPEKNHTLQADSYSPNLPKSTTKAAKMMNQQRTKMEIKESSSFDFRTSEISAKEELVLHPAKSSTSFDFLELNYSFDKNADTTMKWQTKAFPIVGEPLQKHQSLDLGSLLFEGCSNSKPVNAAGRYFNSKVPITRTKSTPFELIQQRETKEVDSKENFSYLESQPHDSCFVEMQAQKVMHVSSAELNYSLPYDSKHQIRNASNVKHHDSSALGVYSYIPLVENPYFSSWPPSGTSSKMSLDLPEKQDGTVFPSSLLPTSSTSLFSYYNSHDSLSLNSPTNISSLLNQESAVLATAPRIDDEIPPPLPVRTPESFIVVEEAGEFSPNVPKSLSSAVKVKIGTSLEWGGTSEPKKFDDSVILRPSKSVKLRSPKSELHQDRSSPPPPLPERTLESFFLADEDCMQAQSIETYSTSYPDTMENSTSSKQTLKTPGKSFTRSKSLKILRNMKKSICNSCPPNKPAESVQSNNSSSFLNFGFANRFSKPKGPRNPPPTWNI

[3] = target: T3, Tyrosine-protein phosphatase non-receptor type 7 (Homo sapiens) (UniProt P35236); experiment: Substrate activity at HEPTP (unknown origin) expressed in Escherichia coli BL21 (DE3) incubated for 60 mins by fluorescence based assay
T3 sequence (whole entry): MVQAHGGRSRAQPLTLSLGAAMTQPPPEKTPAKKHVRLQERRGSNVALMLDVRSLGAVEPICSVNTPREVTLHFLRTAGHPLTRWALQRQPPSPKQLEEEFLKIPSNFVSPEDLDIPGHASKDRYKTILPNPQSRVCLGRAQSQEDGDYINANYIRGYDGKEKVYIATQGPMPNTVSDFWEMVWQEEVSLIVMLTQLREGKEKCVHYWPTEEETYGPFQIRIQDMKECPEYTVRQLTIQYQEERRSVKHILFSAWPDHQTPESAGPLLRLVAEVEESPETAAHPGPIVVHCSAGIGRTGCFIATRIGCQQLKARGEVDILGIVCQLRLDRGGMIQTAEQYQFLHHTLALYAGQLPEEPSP

[4] = target: T4, Tyrosine-protein phosphatase non-receptor type 11 (Homo sapiens) (UniProt Q06124); experiment: Substrate activity at SHP2 (unknown origin) expressed in Escherichia coli BL21 (DE3) incubated for 60 mins by fluorescence based assay
T4 sequence (whole entry): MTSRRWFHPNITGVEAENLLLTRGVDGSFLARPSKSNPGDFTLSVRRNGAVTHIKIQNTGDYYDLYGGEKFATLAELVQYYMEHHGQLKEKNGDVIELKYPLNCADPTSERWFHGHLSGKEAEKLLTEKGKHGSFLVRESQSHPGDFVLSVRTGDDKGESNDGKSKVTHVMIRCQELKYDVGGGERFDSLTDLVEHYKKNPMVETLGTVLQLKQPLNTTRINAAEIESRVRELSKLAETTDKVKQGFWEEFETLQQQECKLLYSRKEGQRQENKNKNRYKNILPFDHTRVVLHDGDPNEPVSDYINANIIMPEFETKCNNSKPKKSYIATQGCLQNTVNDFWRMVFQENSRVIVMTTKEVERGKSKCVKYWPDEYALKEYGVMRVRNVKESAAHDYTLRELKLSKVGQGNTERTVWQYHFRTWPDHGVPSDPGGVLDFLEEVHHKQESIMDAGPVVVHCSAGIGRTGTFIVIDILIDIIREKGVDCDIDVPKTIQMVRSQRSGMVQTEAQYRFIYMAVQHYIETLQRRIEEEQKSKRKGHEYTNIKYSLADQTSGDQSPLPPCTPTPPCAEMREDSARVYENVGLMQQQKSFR

[5] = target: Receptor-type tyrosine-protein phosphatase mu (Homo sapiens) (UniProt P28827); experiment: Substrate activity at PTPmu (unknown origin) expressed in Escherichia coli BL21 (DE3) incubated for 60 mins by fluorescence based assay
Sequence of Receptor-type tyrosine-protein phosphatase mu (Homo sapiens) (P28827 whole entry): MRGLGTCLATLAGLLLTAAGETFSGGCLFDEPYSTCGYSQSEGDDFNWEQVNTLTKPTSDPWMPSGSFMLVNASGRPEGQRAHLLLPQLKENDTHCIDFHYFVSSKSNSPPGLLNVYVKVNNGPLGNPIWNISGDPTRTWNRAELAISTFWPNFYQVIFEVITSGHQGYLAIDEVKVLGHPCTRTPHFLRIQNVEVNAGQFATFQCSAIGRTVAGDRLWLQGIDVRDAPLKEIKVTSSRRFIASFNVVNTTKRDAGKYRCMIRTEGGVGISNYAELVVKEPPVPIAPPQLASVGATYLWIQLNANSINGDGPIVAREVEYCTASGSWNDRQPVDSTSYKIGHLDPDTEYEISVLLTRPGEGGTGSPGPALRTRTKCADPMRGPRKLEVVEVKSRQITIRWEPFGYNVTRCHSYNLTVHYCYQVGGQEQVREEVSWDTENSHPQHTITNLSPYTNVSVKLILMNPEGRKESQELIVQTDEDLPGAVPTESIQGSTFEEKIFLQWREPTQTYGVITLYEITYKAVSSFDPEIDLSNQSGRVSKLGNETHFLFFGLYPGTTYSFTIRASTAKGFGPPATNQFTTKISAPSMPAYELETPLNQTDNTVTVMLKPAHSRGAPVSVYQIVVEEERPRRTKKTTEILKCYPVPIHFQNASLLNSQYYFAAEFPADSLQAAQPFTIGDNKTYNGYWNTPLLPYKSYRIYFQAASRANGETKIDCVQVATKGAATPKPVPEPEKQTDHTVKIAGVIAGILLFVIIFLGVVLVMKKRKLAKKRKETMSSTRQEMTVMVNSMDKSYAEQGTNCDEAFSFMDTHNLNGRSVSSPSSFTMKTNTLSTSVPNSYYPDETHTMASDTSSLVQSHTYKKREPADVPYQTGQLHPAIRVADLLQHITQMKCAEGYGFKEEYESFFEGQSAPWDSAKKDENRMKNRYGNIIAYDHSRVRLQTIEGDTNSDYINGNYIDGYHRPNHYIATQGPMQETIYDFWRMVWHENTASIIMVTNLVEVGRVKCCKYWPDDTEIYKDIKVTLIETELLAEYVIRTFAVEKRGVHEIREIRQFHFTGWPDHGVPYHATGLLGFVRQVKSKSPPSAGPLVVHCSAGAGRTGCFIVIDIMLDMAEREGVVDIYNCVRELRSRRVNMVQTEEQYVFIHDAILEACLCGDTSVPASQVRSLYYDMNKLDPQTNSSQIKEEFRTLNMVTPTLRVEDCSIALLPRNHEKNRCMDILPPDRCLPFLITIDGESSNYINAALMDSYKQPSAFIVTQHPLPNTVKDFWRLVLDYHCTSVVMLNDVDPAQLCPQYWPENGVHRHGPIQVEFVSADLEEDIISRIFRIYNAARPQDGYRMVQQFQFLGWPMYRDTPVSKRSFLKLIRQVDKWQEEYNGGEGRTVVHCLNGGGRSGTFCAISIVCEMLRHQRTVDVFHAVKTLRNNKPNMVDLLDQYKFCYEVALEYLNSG

SMILES	Activity [1]	Activity [2]	Activity [3]	Activity [4]	Activity [5]
CC[C@H](C)[C@H](NC(=O)[C@@H](NC(=O)[C@H](CC(=O)O)NC(=O)[C@H](CC(=O)O)NC(C)=O)[C@@H](C)O)C(=O)N[C@@H](Cc1cc(=O)oc2cc(OP(=O)(O)O)ccc12)C(=O)N[C@@H](CC(=O)O)C(=O)N[C@H](C(=O)N[C@@H](CC(C)C)C(=O)N[C@@H](CC(=O)O)C(N)=O)C(C)C (Ac-DDTI[Ala(7-OPO3H2-coumarin-4-yl)]DVLD-NH2)	inactive	Active	inactive	Active	inactive
CC[C@H](C)[C@H](NC(=O)[C@@H](NC(=O)[C@H](CC(=O)O)NC(=O)[C@H](CC(=O)O)NC(C)=O)[C@@H](C)O)C(=O)N[C@@H](Cc1cc(=O)oc2cc(OP(=O)(O)O)ccc12)C(=O)N[C@H](C(=O)N[C@H](C(=O)N[C@@H](CC(C)C)C(=O)N[C@@H](CC(=O)O)C(N)=O)C(C)C)[C@@H](C)O (Ac-DDTI[Ala(7-OPO3H2-coumarin-4-yl)]TVLD-NH2)				Active	inactive
CC[C@H](C)[C@H](NC(=O)[C@@H](NC(=O)[C@H](CC(=O)O)NC(=O)[C@H](CC(=O)O)NC(C)=O)[C@@H](C)O)C(=O)N[C@@H](Cc1cc(=O)oc2cc(OP(=O)(O)O)ccc12)C(=O)N[C@H](C(=O)N[C@H](C(=O)N[C@@H](CC(C)C)C(=O)N[C@@H](CC(=O)O)C(N)=O)C(C)C)C(C)C (Ac-DDTI[Ala(7-OPO3H2-coumarin-4-yl)]VVLD-NH2)	Active	Active	Active	Active	inactive
CC[C@H](C)[C@H](NC(=O)[C@@H](NC(=O)[C@@H]1CCCN1C(=O)[C@H](CC(=O)O)NC(C)=O)[C@@H](C)O)C(=O)N[C@@H](Cc1cc(=O)oc2cc(OP(=O)(O)O)ccc12)C(=O)N1CCC[C@H]1C(=O)N[C@H](C(=O)N[C@@H](CC(C)C)C(=O)N[C@@H](CC(=O)O)C(N)=O)C(C)C (Ac-DPTI[Ala(7-OPO3H2-coumarin-4-yl)]PVLD-NH2)				Active	inactive
CC[C@H](C)[C@H](NC(=O)[C@@H](NC(=O)[C@H](CO)NC(=O)[C@H](CC(=O)O)NC(C)=O)[C@@H](C)O)C(=O)N[C@@H](Cc1cc(=O)oc2cc(OP(=O)(O)O)ccc12)C(=O)N[C@@H](CC(=O)O)C(=O)N[C@H](C(=O)N[C@@H](CC(C)C)C(=O)N[C@@H](CC(=O)O)C(N)=O)C(C)C (Ac-DSTI[Ala(7-OPO3H2-coumarin-4-yl)]DVLD-NH2)				Active	inactive
CC[C@H](C)[C@H](NC(=O)[C@@H](NC(=O)[C@H](CO)NC(=O)[C@H](CC(=O)O)NC(C)=O)[C@@H](C)O)C(=O)N[C@@H](Cc1cc(=O)oc2cc(OP(=O)(O)O)ccc12)C(=O)N[C@H](C(=O)N[C@H](C(=O)N[C@@H](CC(C)C)C(=O)N[C@@H](CC(=O)O)C(N)=O)C(C)C)[C@@H](C)O (Ac-DSTI[Ala(7-OPO3H2-coumarin-4-yl)]TVLD-NH2)				Active	inactive
CC[C@H](C)[C@H](NC(=O)[C@@H](NC(=O)[C@H](CO)NC(=O)[C@H](CC(=O)O)NC(C)=O)[C@@H](C)O)C(=O)N[C@@H](Cc1cc(=O)oc2cc(OP(=O)(O)O)ccc12)C(=O)N[C@H](C(=O)N[C@H](C(=O)N[C@@H](CC(C)C)C(=O)N[C@@H](CC(=O)O)C(N)=O)C(C)C)C(C)C (Ac-DSTI[Ala(7-OPO3H2-coumarin-4-yl)]VVLD-NH2)				Active	inactive
